Experimental data from PubChem BioAssay AID330 (DTP/NCI, 2004).
Where “and” joins values, the source holds several entries; their conditions need not be identical. Equal entries are not always repeated. Toxic doses and inconclusive results are not listed.

Tested on: P388 leukemia ip, CD2F1 mice, survival T/C
Test: NCI In Vivo Anticancer Drug Screen. Data for tumor model P388 Leukemia (intraperitoneal) in CD2F1 (CDF1) mice
Settings: endpoint: median survival time, higher = longer survival
Procedure, shortened: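 Mice carrying the transplanted tumor received test compound or vehicle. Survival was recorded in each group, and the value is the treated-group measurement divided by that of the vehicle-treated control group.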

In the case of `C[N+]1(C)CCc2c([nH]c3ccccc23)C1`, the T/C (dose: 100.0 mg/kg/injection, schedule: Q01DX001 (ip), vehicle: suspension in saline) is reported as 95 % of control and the T/C (dose: 200.0 mg/kg/injection, schedule: Q01DX001 (ip), vehicle: suspension in saline) is reported as 107 % of control.
With `COCc1cccc2ccnc(C)c12` the T/C (dose: 100.0 mg/kg/injection, schedule: Q01DX001 (ip), vehicle: saline with Tween-80) was 104 % of control, the T/C (dose: 200.0 mg/kg/injection, schedule: Q01DX001 (ip), vehicle: saline with Tween-80) was 108 % of control and the T/C (dose: 400.0 mg/kg/injection, schedule: Q01DX001 (ip), vehicle: saline with Tween-80) was 107 % of control.
With `Cc1cc2c(cc1C)NC1=C(N2)OC(c2ccc(Cl)cc2)C1=O` (stereo not given) the T/C (dose: 60.0 mg/kg/injection, schedule: Q01DX005 (ip), vehicle: saline with Tween-80) was 92 % of control, the T/C (dose: 120.0 mg/kg/injection, schedule: Q01DX005 (ip), vehicle: saline with Tween-80) was 89 % of control and the T/C (dose: 240.0 mg/kg/injection, schedule: Q01DX005 (ip), vehicle: saline with Tween-80) was 92 % of control.
For `[Cu+2].[NH-]CC(=O)NC(Cc1ccccc1)C(=O)O.[NH-]CC(=O)NC(Cc1ccccc1)C(=O)O` (stereo not given), the T/C (dose: 12.5 mg/kg/injection, schedule: Q04DX003 (ip), vehicle: saline) was 93 % of control, the T/C (dose: 25.0 mg/kg/injection, schedule: Q04DX003 (ip), vehicle: saline) was 90 % of control and the T/C (dose: 50.0 mg/kg/injection, schedule: Q04DX003 (ip), vehicle: saline) was 100 % of control.
In the case of `C=C(c1ccc(OC)cc1)c1ccc(OC)cc1`, the T/C (dose: 50.0 mg/kg/injection, schedule: Q01DX009 (ip), vehicle: saline with Tween-80) is reported as 103 % of control, the T/C (dose: 100.0 mg/kg/injection, schedule: Q01DX009 (ip), vehicle: saline with Tween-80) is reported as 105 % of control and the T/C (dose: 200.0 mg/kg/injection, schedule: Q01DX009 (ip), vehicle: saline with Tween-80) is reported as 102 % of control.
With `O=S1(=O)CC(Cl)(Br)C1` (tested in a mixture with another compound) the T/C (dose: 12.5 mg/kg/injection, schedule: Q01DX009 (ip), vehicle: Klucel (hydroxypropylcellulose) (HPC)) was 96 % of control, the T/C (dose: 25.0 mg/kg/injection, schedule: Q01DX009 (ip), vehicle: Klucel (hydroxypropylcellulose) (HPC)) was 93 % of control and the T/C (dose: 50.0 mg/kg/injection, schedule: Q01DX009 (ip), vehicle: Klucel (hydroxypropylcellulose) (HPC)) was 100 % of control. The T/C (dose: 100.0 mg/kg/injection, schedule: Q01DX009 (ip), vehicle: Klucel (hydroxypropylcellulose) (HPC)) was 96 % of control.
For `C1CC2CC1C13OC1CC1OC213` (stereo not given), the T/C (dose: 100.0 mg/kg/injection, schedule: Q04DX002 (ip), vehicle: Klucel (hydroxypropylcellulose) (HPC)) was 104 % of control, the T/C (dose: 200.0 mg/kg/injection, schedule: Q04DX002 (ip), vehicle: Klucel (hydroxypropylcellulose) (HPC)) was 105 % of control and the T/C (dose: 400.0 mg/kg/injection, schedule: Q04DX002 (ip), vehicle: Klucel (hydroxypropylcellulose) (HPC)) was 111 % of control.
`CC(NC(=O)C(CO)NC(=O)c1cnc2ccccc2n1)C(=O)OC(C)(C)C` (stereo not given) was tested, and the T/C (dose: 60.0 mg/kg/injection, schedule: Q01DX005 (ip), vehicle: DMSO) was 98 % of control, the T/C (dose: 120.0 mg/kg/injection, schedule: Q01DX005 (ip), vehicle: DMSO) was 99 % of control and the T/C (dose: 240.0 mg/kg/injection, schedule: Q01DX005 (ip), vehicle: DMSO) was 109 % of control.
With `CO/N=C1\CC(C)N2C(=O)C(C(C)C)NC(=O)C(NC(=O)c3c4nc5c(C(=O)NC6C(=O)NC(C(C)C)C(=O)N7C(C)CC(O)C7C(=O)N(C)CC(=O)N(C)C(C(C)C)C(=O)OC6C)ccc(C)c5oc-4c(C)c(=O)c3N)C(CO)OC(=O)C(C)N(C)C(=O)CN(C)C(=O)C12` (stereo not given) the T/C (dose: 12.5 mg/kg/injection, schedule: Q01DX005 (ip), vehicle: saline with Tween-80) was 161 % of control and the T/C (dose: 25.0 mg/kg/injection, schedule: Q01DX005 (ip), vehicle: saline with Tween-80) was 180 % of control.
In the case of `CN(C)C12CCCCCCC1S(=O)(=O)C2` (stereo not given), the T/C (dose: 25.0 mg/kg/injection, schedule: Q04DX002 (ip), vehicle: saline with Tween-80) is reported as 98 % of control, the T/C (dose: 50.0 mg/kg/injection, schedule: Q04DX002 (ip), vehicle: saline with Tween-80) is reported as 98 % of control and the T/C (dose: 100.0 mg/kg/injection, schedule: Q04DX002 (ip), vehicle: saline with Tween-80) is reported as 102 % of control and 96 % of control.
In the case of `C(Oc1nc(OCC2CO2)nc(OCC2CO2)n1)C1CO1` (stereo not given), the T/C (dose: 12.5 mg/kg/injection, schedule: Q01DX009 (ip), vehicle: saline) is reported as 108 % of control, the T/C (dose: 25.0 mg/kg/injection, schedule: Q01DX009 (ip), vehicle: saline) is reported as 105 % of control and the T/C (dose: 50.0 mg/kg/injection, schedule: Q01DX009 (ip), vehicle: saline) is reported as 101 % of control and 108 % of control.
For `Nc1nc2n(O)cc(-c3ccccc3)nc-2c(=O)n1`, the T/C (dose: 10.0 mg/kg/injection, schedule: Q01DX009 (ip), vehicle: saline with Tween-80) was 89 % of control, the T/C (dose: 20.0 mg/kg/injection, schedule: Q01DX009 (ip), vehicle: saline with Tween-80) was 101 % of control and the T/C (dose: 40.0 mg/kg/injection, schedule: Q01DX009 (ip), vehicle: saline with Tween-80) was 92 % of control.
